Assays:
[1] = molecular target: T1, CHK2 (Homo sapiens, UniProt O96017); assay: Kinase inhibition assay, CHK2; type: biochemical
T1 construct: CHK2 (residues M1-L543) containing kinase domain; His; made in house; host or cells: Sf9 insect cells
Method: CHK1/2 – The recombinant His-tagged CHK1 (residues M1-T476) or CHK2 (residues M1-L543) containing kinase domain were expressed in Sf9 insect cells. The kinase assay was carried out in 96-well plates with the tested compound at 30°C for 120 min.
Composition of the reaction buffers used in different kinase inhibitory assays is described in Figure S3.
25 mM HEPES pH 7.4, 10mM MgCl2, 4mM MnCl2, 0.5mM Na3VO4, 2 mM DTT, 0.02% Triton X100, 0.01% BSA, 1 mM ATP, 2 mM CHK peptide ([…]), 50~500 ng recombinant CHK1 or CHK2.

[2] = tested on: HT29 cells; assay: Clonogenic assay, HT29; type: cell-based, Human; settings: Homo sapiens, HT-29; HT29, colon, p53 mutant, MDR1 negative; read-out: IC50, anti-proliferative activity
Method: (§1) Human lung adenocarcinoma A549 cells and NTUB1 bladder cancer cells were maintained in RPMI supplied with 10% fetal bovine serum. […] KB-derived MRP1-expressing cell line, KB-7D, was maintained in growth medium supplemented with 7 µM VP-16.
(§2) Two hundred cells in logarithmic growth phase were seeded in a 6-well plate. The cells were exposed to various concentrations of the test drugs for a three-generation period. At the end of the incubation period, cells were fixed and stained with 50% ethanol containing 0.5% methylene blue for 30 min. The plates were washed five times with water and allowed to air-dry. Colonies were countered manually. […] Each value represents the average of at least three independent experiments run in triplicates.

[3] = tested on: IM9 cells; assay: Clonogenic assay, IM9; type: cell-based, Human; settings: Homo sapiens; IM9, lymphoma, p53 wild-type, MDR1 negative; read-out: IC50, anti-proliferative activity
Method: as §1, §2

[4] = tested on: KB-VIN10 cells; assay: Endo-replication (polyploidy), microscopy and flow cytometry, KB-VIN10; type: cell-based, Human; settings: for formation of polyploidy (populations >4N): KB-VIN10, 48 h, same concentrations as KB
Method: Cell cycle progression was monitored using flow cytometry. After drug treatment, cells were trypsinized, washed with PBS and fixed in 80% ethanol at −20°C for 1 h. The fixed cells were stained with propidium iodide (containing RNase) at room temperature in the dark for 20 min. The DNA content was determined by a fluorescence-activated cell sorting IV flow cytometer (BD Biosciences, Franklin Lakes, NJ). For each analysis, 10,000 cells were counted and the percentage of cells in each phase was calculated using the ModFit LT software (Verity Software House, Topsham, ME). Experiments were repeated independently at least three times.

[5] = tested on: KB cells; assay: Western blot of Histone H3 phosphorylation and cyclin B1, KB; type: cell-based, Human; settings: 48 h, BPR1K653 12, 24, 36 nM, VX680 170 and 255 nM
Method: (§3) Cells were lysed with ice-cold lysis buffer (10 mM Tris, 1 mM EDTA, 1 mM DTT, 60 mM KCl, 0.5% NP-40 and protease inhibitors). […] The resolved proteins were electrophoretically transferred to PVDF membranes (Amersham Life Science, Amersham, U.K.) for Western blot analysis. The membranes were blocked with 5% non-fat milk at room temperature for two hours, washed twice with TBST (1% Tween) and then incubated with either anti-phosphorylated Aurora-A/-B/-C kinase antibody (#2914S, Cell Signaling Technology, Danvers, MA), anti-Aurora-A and -B kinase antibody (#ab1287 and #ab2254, Abcam, Cambridge, MA), anti-phosphorylated Histone H3 antibody (#9701, Cell Signaling Technology, Danvers, MA), anti-Histone H3 antibody (#9715, Cell Signaling Technology, Danvers, MA), anti-Cyclin B1 antibody or anti-Actin antibody (#sc-245 and #sc-130065, Santa Cruz Biotechnology, Santa Cruz, CA) overnight at 4°C. Membranes were washed twice with TBST then subsequently incubated with a horseradish peroxidase-conjugated secondary antibody (Santa Cruz Biotechnology, Santa Cruz, CA) for 1 hour at room temperature. Immunoreactivity was detected by Enhanced Chemiluminescence (Amersham International, Buckingham, U.K.) and autoradiography. Experiments were repeated independently at least two times.

[6] = tested on: KB-VIN10 cells; assay: Western blot of Histone H3 phosphorylation and cyclin B1, KB-VIN10; type: cell-based, Human; settings: for Histone H3 phosphorylation and cyclin B1 expression: KB-VIN10, 48 h, BPR1K653 12, 24, 36 nM, VX680 170 and 255 nM
Method: as §3

[7] = tested on: human cervical carcinoma KB xenografts; assay: KB xenograft in nude mice; type: in vivo; settings: for decrease in tumor volume: day 30, BPR1K653 15 mg/kg or VX680 30 mg/kg i.p.
Method: Under in vivo conditions, tumors were dissected from the euthanized mice and instantly stored under −80°C. Tumor tissue sections were prepared from the use of cryostats (Leica Microsystems, Buffalo Grove, IL), and subsequently fixed with ice-cold methanol. Tissue sections were stained by the TUNEL reagent using Fluorescent (green) In-Situ Apoptosis Detection Kit (catalog number #11684795910, Roche Diagnostic, Mannheim, Germany). Cells were counterstained with DAPI to detect nucleus, and examined by fluorescence microscopy. Amount of green fluorescence labeled (DNA fragmented) cells were counted and percentage of apoptotic cells were calculated as follows: Amount of green fluorescence labeled cells ÷ Total cells available×100. Experiments were repeated independently at least two times.
(§4) Male nude mice (5–6-weeks-old) were purchased from the National Laboratory Animal Centre (Taiwan R.O.C.). The animals were s.c. implanted with 5×10^5 KB cells or 1×10^6 KB-VIN10 cells mixed with equal volume of Matrigel (Becton Dickinson) in 0.1 mL at one flank per mouse via a 22-gauge needle. Tumor growth was examined twice a week after implantation, and the volume of tumor mass was measured with an electronic caliper and calculated as 1/2×length×width^2 in mm^3.
(§5) BPR1K653 was dissolved completely in a vehicle mixture of DMSO/cremophor/saline (1∶2∶7). Selected dose of BPR1K653 was decided base on the following conditions: 1/2 of the dosage that caused noticeable body weight loss (>10%) in the treated mice during toxicity study. […] The control group (5 mice) was treated with vehicle mixture only. Tumor size and animal body weight were measured every three days after drug treatment. Toxicity was evaluated based on the body weight reduction. At the end of the experiments (tumor size of the control >2000 mm^3), animals were euthanized with carbon dioxide.
Tumors were harvested and instantly stored at −80°C. Frozen cryostat sections were fixed with ice-cold methanol for 10 min. After washing with PBS, endogenous peroxidase was blocked using 3% hydrogen peroxide in TBS for 5 min. Immunostaining process was carried out according to the user's manual of the ABC Peroxidase Staining Kit (Pierce Biotechnology, Rockford, IL). Briefly, the tissues were incubated with a protein-blocking solution for 20 min, and subsequently stained with an anti-phosphorylated Histone H3 (Ser10) polyclonal antibody for 1 hour at room temperature. Then, the samples were incubated with the ABC reagent for 30 min, and subsequently incubated with the metal enhanced DAB substrate. The sections were counterstained with hematoxylin.

[8] = tested on: MDR1-expressing KB-VIN10 xenograft; assay: KB-VIN10 xenograft in nude mice; type: in vivo; settings: 5 days/week for 3 weeks; for decrease in tumor volume: Day 42, BPR1K653 15 mg/kg or VX680 30 mg/kg i.p.
Method: as §4, §5

T1 sequence (O96017 whole entry, the tested form may be a part): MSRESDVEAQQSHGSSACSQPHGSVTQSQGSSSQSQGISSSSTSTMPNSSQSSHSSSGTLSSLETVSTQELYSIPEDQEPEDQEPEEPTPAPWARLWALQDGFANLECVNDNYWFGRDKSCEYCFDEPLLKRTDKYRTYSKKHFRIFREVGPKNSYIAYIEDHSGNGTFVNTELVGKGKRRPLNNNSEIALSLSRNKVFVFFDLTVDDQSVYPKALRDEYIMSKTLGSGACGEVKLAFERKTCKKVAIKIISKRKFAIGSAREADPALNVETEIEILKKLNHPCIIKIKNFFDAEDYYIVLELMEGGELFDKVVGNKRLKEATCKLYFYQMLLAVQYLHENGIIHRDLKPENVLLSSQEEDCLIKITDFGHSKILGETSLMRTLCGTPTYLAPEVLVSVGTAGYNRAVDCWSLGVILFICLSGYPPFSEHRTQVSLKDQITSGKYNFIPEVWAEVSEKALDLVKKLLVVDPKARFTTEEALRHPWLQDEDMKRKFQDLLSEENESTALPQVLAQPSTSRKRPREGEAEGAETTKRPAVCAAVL

IC50 [1] | loss of body weight after treatment ([7]; 15 mg/kg i.p., 5 days/week for 2 weeks, vs control group) | loss of body weight after treatment ([8]; 15 mg/kg i.p., vs control group) | Structure (SMILES) | IC50 [2] | IC50 [3] | formation of polyploidy (populations >4N) [4] | Histone H3 phosphorylation and cyclin B1 expression [5] | Histone H3 phosphorylation and cyclin B1 expression [6] | phosphor-Histone H3 positive cells present in tumor tissues ([7]; 15 mg/kg i.p., 24 h after second administration, control 60%) | apoptotic cells present in the tumor tissue (TUNEL) ([7]; 15 mg/kg i.p., 12 days post-treatment, control 7%) | decrease in tumor volume ([7]; 5 days/week for 2 weeks) | decrease in tumor volume [8] | formation of polyploidy, co-treated with verapamil ([4]; KB-VIN10, + 10 µM verapamil) | Histone H3 phosphorylation and cyclin B1 expression, with verapamil ([6]; KB-VIN10, + verapamil 10 µM)
2.3 µM | less than 10% | less than 10% | CN(C)Cc1ccccc1NC(=O)Nc1ccc(CCNc2ncnc3oc(-c4ccccc4)c(Cl)c23)cc1 [BPR1K653] | 0.012 ± 0.002 µM | 0.004 ± 0.002 µM | induced the formation of polyploidy | inhibition of Histone H3 phosphorylation and down-regulation of cyclin B1 expression | inhibition of Histone H3 phosphorylation and down-regulation of cyclin B1 expression | 10% | 55% | ~73% | ~50% |  | 
 |  |  | Cc1cc(Nc2cc(N3CCN(C)CC3)nc(Sc3ccc(NC(=O)C4CC4)cc3)n2)[nH]n1 [VX680] | 0.16 ± 0.033 µM | 0.031 ± 0.016 µM | not in KB-VIN10 cells | inhibited the phosphorylation of Histone H3 and the expression of cyclin B1 | could not induce the above molecular changes |  |  | ~68% | did not exhibit significant tumor growth inhibitory effect | formation of the polyploidy population was shown | restore the sensitivity to VX680

— PMC3160846 (PLoS ONE, 2011)
